One assay addresses T1, aromatase (Rattus norvegicus, UniProt P22443).
T1 construct: ovarian microsomes are obtained from rats treated with pregnant mares serum gonadotropin; from tissue; host or cells: ovary microsomes from rats treated with pregnant mares serum gonadotropin
T1 sequence (P22443 1-508): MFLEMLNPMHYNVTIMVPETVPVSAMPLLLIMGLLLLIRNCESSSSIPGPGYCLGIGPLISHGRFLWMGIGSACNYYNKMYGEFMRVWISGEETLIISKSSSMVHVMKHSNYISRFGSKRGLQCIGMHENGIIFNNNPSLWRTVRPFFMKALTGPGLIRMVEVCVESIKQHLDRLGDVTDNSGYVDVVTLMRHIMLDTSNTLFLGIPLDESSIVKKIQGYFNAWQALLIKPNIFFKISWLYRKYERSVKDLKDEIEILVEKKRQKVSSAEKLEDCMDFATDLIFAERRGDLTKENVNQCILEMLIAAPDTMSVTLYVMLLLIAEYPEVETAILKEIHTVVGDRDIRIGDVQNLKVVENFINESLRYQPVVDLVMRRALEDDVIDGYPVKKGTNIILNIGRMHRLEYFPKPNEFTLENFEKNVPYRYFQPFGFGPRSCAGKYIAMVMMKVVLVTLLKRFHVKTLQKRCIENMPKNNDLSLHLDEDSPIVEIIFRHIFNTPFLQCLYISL
The assay can be described thus: Aromatase inhibition in the rat ovarian microsome assay. The assay is classed as biochemical. The settings on record: rat ovarian microsomes; substrate (androstenedione) concentration 0.1 μM.

The next assay relates to breast cancer. The note with it: known aromatase inhibitors; cited from earlier work.

Counter-ions that a name gives are not always drawn.

The EC50 is the concentration giving half of the maximal effect. Lower therefore signals an effect from little substance.

Experimental for aromatase: In this test system, ovarian microsomes are obtained from rats treated with pregnant mares serum gonadotropin. Test compounds are added to reaction vials containing 0.1 μM 4-androstene-3,17-dione, 100,000 dpm 1,2[^3 H]-androstenedione, the microsomes and a NADPH generating system. The concentrations of the inhibitors tested ranged between 0.005 and 10 μM.

In the case of `Clc1ccc(C(c2ccccc2)c2cn[nH]c2)c(Cl)c1` (stereo not shown) [4-[(2,4-Dichlorophenyl)phenylmethyl]-1H-pyrazole], a half-maximal effect on aromatase (EC50) was put at 310 nM. Still for that read-out and setting: then `Clc1ccc(C(c2ccc(Cl)cc2)c2cc[nH]n2)cc1` [3-[Bis(4-chlorophenyl)methyl]-1H-pyrazole hydrochloride], with 170 nM. As for `CCC1(c2ccc(N)cc2)CCC(=O)NC1=O` (stereo not shown) [aminoglutethimide], the “effect in treatment of breast cancer” value in the assay on breast cancer was “beneficial effect in treatment of breast cancer”. As to `C[C@]12C=CC(=O)C=C1CC[C@@H]1[C@@H]2CC[C@]2(C)OC(=O)CC[C@@H]12` [testolactone], in the assay with breast cancer, the “effect in treatment of breast cancer” value is reported as “beneficial effect in treatment of breast cancer”.

The values are drawn from patent publication US4609666A, “Aromatase inhibiting derivatives of α,α-bis(4-halophenyl)methyltetrazoles and triazoles” (Eli Lilly and Company, priority 1984, dated 1986).
